Assay results: paper PMC8617031, “Development of a BCL-xL and BCL-2 dual degrader with improved anti-leukemic activity,” (Nature Communications, 2021)
“And” between values parts separate entries of the source, which are not always exact repeats. Equal values may be shown once.

Key:
His-tagged BCL-xL = target: T1, His-tagged BCL-xL (Homo sapiens, UniProt Q07817); assay: AlphaScreen competitive binary binding, BCL-xL (biotin-BAD peptide)
T1 construct: purchased Sigma-Aldrich SRP0187
Protocol: (§1) The reagents were diluted in a buffer containing 250 mM HEPES pH 7.5, 1 M NaCl, 1% BSA, and 0.05% Tween-80. His-tagged BCL-xL (0.5 nM, Cat. No. SRP0187, Sigma-Aldrich) or BCL-2 (1 nM, Cat. No. SRP0186, Sigma-Aldrich) were incubated with serial diluted 753a or 753b and 2 nM biotin-tagged BAD (biotin-[…] amino-terminal, AnaSpec, for BCL-xL) or 10 nM BIM peptides (biotin-[…] N-terminal, AnaSpec, for BCL-2) to a final volume of 40 µl in a 96-well PCR plate. […] After incubation for 2 h, 5 µl 6× His-acceptor beads (Cat. No. AL128M, PerkinElmer) were added to each well at 20 µg/ml final concentration and incubated for 1 h. Then 5 µl streptavidin-donor beads were added (Cat. No. 6760002, PerkinElmer) to each well at 20 µg/ml final concentration and incubated for 45 min. At the end of the incubation period, 17 µl of each sample was transferred in adjacent wells of 384-well proxy plate (Cat. No. 6008280, PerkinElmer). The plate was scanned using the Alpha program on Biotek’s Synergy Neo2 multimode plate reader. The inhibition constant (Ki) was calculated using the non-linear regression, one site, competitive binding, Fit Ki function on GraphPad Prism 9 software, based on experimentally determined dissociation constant (Kd) for each protein–peptide pair.

His-tagged BCL-2 = target: T2, His-tagged BCL-2 (Homo sapiens, UniProt P10415); assay: AlphaScreen competitive binary binding, BCL-2 (biotin-BIM peptide)
T2 construct: purchased Sigma-Aldrich SRP0186
T2 sequence (P10415 whole entry): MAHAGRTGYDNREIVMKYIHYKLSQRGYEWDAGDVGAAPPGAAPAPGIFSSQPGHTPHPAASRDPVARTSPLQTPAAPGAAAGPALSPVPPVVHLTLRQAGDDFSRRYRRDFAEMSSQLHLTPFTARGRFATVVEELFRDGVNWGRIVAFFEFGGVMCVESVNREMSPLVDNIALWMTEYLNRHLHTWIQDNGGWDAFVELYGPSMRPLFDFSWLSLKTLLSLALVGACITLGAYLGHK
Protocol: as §1

[1] = AlphaScreen, Supplementary Fig. 6

T1 sequence (Q07817 whole entry): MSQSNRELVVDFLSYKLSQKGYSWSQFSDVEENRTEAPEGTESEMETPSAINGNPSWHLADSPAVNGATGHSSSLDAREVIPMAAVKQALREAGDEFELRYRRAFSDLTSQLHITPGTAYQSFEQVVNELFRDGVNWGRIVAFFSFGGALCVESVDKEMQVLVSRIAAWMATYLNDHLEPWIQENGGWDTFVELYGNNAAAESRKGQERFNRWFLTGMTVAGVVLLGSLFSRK

IC50 (His-tagged BCL-xL; BCL-xL Rep-1): 39 nM
Ki (His-tagged BCL-xL; BCL-xL Rep-1): 1.75 nM
Alpha signal (raw counts) (His-tagged BCL-xL; BCL-xL Rep-1, plate row B, 5 uM): 27085 and 24738
Alpha signal (raw counts) (His-tagged BCL-xL; BCL-xL Rep-1, plate row C, 1.25 uM): 28062 and 40230
Alpha signal (raw counts) (His-tagged BCL-xL; BCL-xL Rep-1, plate row D, 0.3125 uM): 145116 and 115021
Alpha signal (raw counts) (His-tagged BCL-xL; BCL-xL Rep-1, plate row E, 0.078125 uM): 433630 and 441172
Alpha signal (raw counts) (His-tagged BCL-xL; BCL-xL Rep-1, plate row F, 0.0195312 uM): 726417 and 752069
Alpha signal (raw counts) (His-tagged BCL-xL; BCL-xL Rep-1, plate row G, 0.00488281 uM): 950071 and 945138
Alpha signal (raw counts) (His-tagged BCL-xL; BCL-xL Rep-1, plate row H, 0.0012207 uM): 1050463 and 1074380
Alpha signal (raw counts) (His-tagged BCL-xL; BCL-xL Rep-1, plate row I, 0.000305176 uM): 1307721 and 1309993
Alpha signal (raw counts) (His-tagged BCL-xL; BCL-xL Rep-1, plate row J, 7.62939e-5 uM): 1113170 and 1173569
Alpha signal (raw counts) (His-tagged BCL-xL; BCL-xL Rep-1, plate row K, 1.90735e-5 uM): 1107772 and 1259986
Alpha signal (raw counts) (His-tagged BCL-xL; BCL-xL Rep-2, 7.62939e-5 uM): 1188088 and 1161046
Alpha signal (raw counts) (His-tagged BCL-xL; BCL-xL Rep-2, plate row B, 5 uM): 24343 and 23695
Alpha signal (raw counts) (His-tagged BCL-xL; BCL-xL Rep-2, plate row C, 1.25 uM): 25479 and 38889
Alpha signal (raw counts) (His-tagged BCL-xL; BCL-xL Rep-2, plate row D, 0.3125 uM): 95317 and 147841
Alpha signal (raw counts) (His-tagged BCL-xL; BCL-xL Rep-2, plate row E, 0.078125 uM): 336804 and 343845
Alpha signal (raw counts) (His-tagged BCL-xL; BCL-xL Rep-2, plate row F, 0.0195312 uM): 767361 and 853215
Alpha signal (raw counts) (His-tagged BCL-xL; BCL-xL Rep-2, plate row G, 0.00488281 uM): 937707 and 1041403
Alpha signal (raw counts) (His-tagged BCL-xL; BCL-xL Rep-2, plate row H, 0.0012207 uM): 1127054 and 1147040
Alpha signal (raw counts) (His-tagged BCL-xL; BCL-xL Rep-2, plate row I, 0.000305176 uM): 1272095 and 1259132
Alpha signal (raw counts) (His-tagged BCL-xL; BCL-xL Rep-2, plate row K, 1.90735e-5 uM): 1255062 and 1549086
Ki (His-tagged BCL-xL; BCL-xL, mean of the two replicate values (line without label)): 1.52 nM
Ki (His-tagged BCL-xL; BCL-xL, second value (line without label below Rep-1, apparently Rep-2)): 1.29 nM
Alpha signal (raw counts) (His-tagged BCL-2; BCL-2 Rep-2, 0.00488281 uM): 457099 and 452255
Alpha signal (raw counts) (His-tagged BCL-2; BCL-2 Rep-2, plate row C, 1.25 uM): 11131 and 19293
Alpha signal (raw counts) (His-tagged BCL-2; BCL-2 Rep-2, plate row D, 0.3125 uM): 23398 and 21436
Alpha signal (raw counts) (His-tagged BCL-2; BCL-2 Rep-2, plate row E, 0.078125 uM): 28167 and 26661
Alpha signal (raw counts) (His-tagged BCL-2; BCL-2 Rep-2, plate row F, 0.0195312 uM): 165828 and 146355
Alpha signal (raw counts) (His-tagged BCL-2; BCL-2 Rep-2, plate row H, 0.0012207 uM): 607122 and 550701
Alpha signal (raw counts) (His-tagged BCL-2; BCL-2 Rep-2, plate row I, 0.000305176 uM): 723572 and 761986
Alpha signal (raw counts) (His-tagged BCL-2; BCL-2 Rep-2, plate row J, 7.62939e-5 uM): 723255 and 767572
Alpha signal (raw counts) (His-tagged BCL-2; BCL-2 Rep-2, plate row K, 1.90735e-5 uM): 723831 and 708342
Structure (SMILES): Cc1ncsc1-c1ccc([C@H](C)NC(=O)[C@@H]2C[C@@H](O)CN2C(=O)[C@@H](NC(=O)CCCCCCC(=O)N2CCN(C[C@@]3(C)CCC(c4ccc(Cl)cc4)=C(CN4CCN(c5ccc(C(=O)NS(=O)(=O)c6ccc(N[C@H](CCN7CCOCC7)CSc7ccccc7)c(S(=O)(=O)C(F)(F)F)c6)cc5)CC4)C3)CC2)C(C)(C)C)cc1 [753a]
binary binding affinity to BCL-xL (in words) (His-tagged BCL-xL; [1]): much weaker than that of the warhead ABT263
binary binding affinity to BCL-2 (in words) (His-tagged BCL-2; [1]): much weaker than that of the warhead ABT263
